Results as given in US8759481B2, “Peptide vaccines for cancers expressing tumor-associated antigens” (Oncotherapy Science, Inc., priority 2007, dated 2014).
Entries after “also recorded” stand apart in the source; their conditions may differ. Ends that are not written are not given here.

How the values were obtained:
Assay type in all cases: cell-based, human
[1] = test system: peptide-pulsed A24-LCL cells; assay: IFN-gamma ELISPOT assay (positive wells); conditions: HLA-A24 peptides; as compared to the control
In short: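 PBMC-derived DCs from HLA-A*2402 and/or A*0201 donors, pulsed with 20 micro g/ml peptide plus 3 micro g/ml beta 2-microglobulin, stimulated autologous CD8+ T cells three times (days 0, 7, 14). On day 21, responders were tested against peptide-pulsed A24-LCL or T2 cells by IFN-gamma ELISPOT. Values are reported as positive wells/wells tested; CTL lines confirmed by ELISA.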

[2] = test system: peptide-pulsed A24-LCL cells; assay: CTL line establishment, IFN-gamma ELISA; conditions: HLA-A24 peptides; vs target without peptide pulse
In short: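 CTL lines were expanded with MMC-inactivated B-lymphoblastoid feeders, 40 ng/ml anti-CD3 and IL-2 in AIM-V/5% AS. IFN-gamma ELISPOT identified specific wells, and ELISA determined established lines, using responders stimulated by peptide-pulsed A24-LCL or T2 cells at 1×10^4/well.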

[3] = test system: COS7 transfected with full length ECT2 gene and HLA-A*2402; assay: Specific CTL activity against transfected target cells; conditions: CTL clone or line raised by the peptide; vs control transfectants; listed as ECT2-A24-10-101
Protocol: (§1) Briefly, peptide-pulsed A24-LCL or T2 cell (1×10^4/well) was prepared as stimulator cells. Cultured Cells in 48 wells or CTL clones after limiting dilution were used as responder cells. IFN-gamma ELISPOT assay and ELISA assay were performed under manufacture procedure.
(§2) The cDNA encoding an open reading frame of target genes or HLA-A02 or HLA-A24 was amplified by PCR. The PCR-amplified product was cloned into pcDNA3.1 myc-His vector (Invitrogen). The plasmids were transfected into the target cells, HLA-A02 and HLA-A24-null normal human cell line COS7 or 293T using lipofectamine (Invitrogen) according to the manufacturer's recommended procedures. Alternatively, the plasmid contained the target genes were transfected into A24-LCL by electroporation using GenePulserII (Biorad). Briefly, 2.5×10^6 A24-LCL cells were pulsed with 10 mcg prasmid at 140V and 1000 micro F. After 2 days from transfection, the transfected cells were treated with Cell dissociation solution and used as the target cells for CTL activity assay.
The established CTL line raised against these peptides were examined for their ability to recognize the target cells expressing ECT2 and HLA-A*2402. […] COS7 transfected with full length ECT2 but not HLA-A*2402 and COS7 transfected with HLA-A*2402 but not full length ECT2 (replaced other gene e.g. URLC10 or INHBB) were prepared as controls.

[4] = test system: peptide-pulsed A24-LCL cells; assay: CTL clones by limiting dilution, specific CTL activity; conditions: HLA-A24 peptides; vs target without peptide pulse
Protocol: (§3) The dilutions were made to have 0.3, 1, and 3 CTLs/well in 96 round-bottomed micro titer plate (Nalge Nunc International). CTLs were cultured with 7×10^4 cells/well of 2 kinds of human B-lymphoblastoid cell lines, 30 ng/ml of anti-CD3 antibody, and 125 U/ml of IL-2 in total of 150 micro 1/well of AIM-V containing 5% AS. 50 micro 1/well of IL-2 was added to the medium 10 days later so that IL-2 became 125 U/ml in the final concentration. CTL activity of CTLs was tested on the 14th day, and CTL clones were expanded using the same method above.
as §1

[5] = test system: COS7 transfected with full length CDH3 gene and HLA-A*2402; assay: Specific CTL activity against transfected target cells; conditions: CTL clones raised by the peptide, vs single transfectants
Protocol: as §1, §2
The established CTL line raised against these peptides were examined for their ability to recognize the target cells expressing CDH3 and HLA-A*2402. […] COS7 transfected with full length CDH3 but not HLA-A*2402 and COS7 transfected with HLA-A*2402 but not full length CDH3 were prepared as controls.

[6] = test system: 293T transfected with full length INHBB gene and HLA-A*2402; assay: as above; conditions: CTL line or clone raised by the peptide, vs control transfectants
Protocol: as §1, §2
The established CTL line raised against these peptides were examined for their ability to recognize the target cells expressing INHBB and HLA-A*2402.

peptide-pulsed T2 cells [7] = assay: IFN-gamma ELISPOT assay (positive wells); conditions: HLA-A02 peptides; as compared to the control
In short: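 CD8+ T cells from HLA-A*2402 and/or HLA-A*0201 donors were stimulated 1:20 with autologous monocyte-derived DCs pulsed with 20 µg/ml peptide plus β2-microglobulin, in IL-7, with IL-2 added, restimulated on days 7 and 14. On day 21, IFN-γ ELISPOT against peptide-pulsed T2 or A24-LCL cells (1×10^4/well) scored wells as positive, with CTL lines confirmed by ELISA.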

peptide-pulsed T2 cells [8] = assay: CTL line establishment, IFN-gamma ELISA; conditions: HLA-A02 peptides; vs target without peptide pulse
Protocol: CTLs were expanded in culture using the method similar to that described by Riddell S R, et al., (Walter E A et al., (1995) N Engl J Med 333:1038-44; Riddel S R, et al., (1996) Nature Med. 2:216-23.). A total 5×10^4 of CTLs were resuspended in 25 ml of AIM-V/5% AS with 2 kinds of human B-lymphoblastoid cell lines, inactivated by MMC, in the presence of 40 ng/ml of anti-CD3 monoclonal antibody (Pharmingen). One day after initiating the cultures, 120 IU/ml of IL-2 were added to the cultures. The cultures were fed with fresh AIM-V/5% AS containing 30 IU/ml of IL-2 on days 5, 8 and 11.
as §1
Positive well number indicates the number of wells where specific IFN-gamma production can be detected by IFN-gamma ELISPOT assay. 4 to 8 wells can be prepared from one donor. This is shown as (positive wells number/the number of whole wells tested by IFN-gamma ELISPOT assay). Positive CTL line indicates the number of CTL line established from positive wells. The generation of CTL line is determined by ELISA. This is shown as (established CTL line number/the number of positive wells tested by IFN-gamma ELISPOT assay). No positive donor is not defined by no detectable positive wells, but by no established CTL line. […] No data at positive donor number, positive well number and positive CTL line indicating “−” means that the peptides can't be synthesized for any reason.
CTLs were expanded in culture using the method similar to the one described by Riddell et al. (Walter E A et al., N Engl J Med 1995 Oct. 19, 333(16): 1038-44; Riddell S R et al., Nat Med 1996 Feb., 2(2): 216-23). A total of 5×10^4 CTLs were suspended in 25 ml of AIM-V/5% AS medium with 2 kinds of human B-lymphoblastoid cell lines, inactivated by MMC, in the presence of 40 ng/ml of anti-CD3 monoclonal antibody (Pharmingen). One day after initiating the cultures, 120 IU/ml of IL-2 were added to the cultures. The cultures were fed with fresh AIM-V/5% AS medium containing 30 IU/ml of IL-2 on days 5, 8 and 11 (Tanaka H et al., Br J Cancer 2001 Jan. 5, 84(1): 94-9; Umano Y et al., Br J Cancer 2001 Apr. 20, 84(8): 1052-7; Uchida N et al., Clin Cancer Res 2004 Dec. 15, 10(24): 8577-86; Suda T et al., Cancer Sci 2006 May, 97(5): 411-9; Watanabe T et al., Cancer Sci 2005 August, 96(8): 498-506).
Specifically, peptide-pulsed T2 (1×10^4/well) was prepared as stimulator cells. Cultured cells in 48 wells were used as responder cells. IFN-gamma ELISPOT assay and IFN-gamma ELISA assay were performed under manufacture procedure.

[9] = test system: COS7 transfected with full length TTK gene and HLA-A*0201; assay: Specific CTL activity against transfected target cells; conditions: vs control transfectants
Protocol: as §1, §2
The established CTL clone raised against these peptides were examined for their ability to recognize the target cells endogenously expressing TTK and HLA-A*0201. […] COS7 transfected with full length TTK but HLA-A*0201, COS7 transfected HLA-A*0201 but not full length of TTK (or replaced full length HIG2 gene) and COS7 transfected with HLA-A*0201 and pulsed with different target epitope peptide, were prepared as controls.

peptide-pulsed T2 cells [10] = assay: CTL clones by limiting dilution, specific CTL activity; conditions: HLA-A02 peptides; vs target without peptide pulse
Protocol: as §3, §1

Substance: DFQDsVFNDL (DFQDSVFNDL; not fully specified; printed as DFQDsVFNDL) [SEQ ID NO: 101]
- IFN-gamma production by IFN-gamma ELISPOT assay [1]: potent IFN-gamma production
- Establishment of CTL line, specific CTL activity against the peptide-pulsed target determined by ELISA [2]: CTL lines were established
- Specific CTL activity against COS7 transfected with both ECT2 and HLA-A24 [3]: highest specific CTL activity; also recorded: high specific CTL activity

Substance: DYLNeWGSRF (DYLNEWGSRF; not fully specified; printed as DYLNeWGSRF) [SEQ ID NO: 30]
- IFN-gamma production by IFN-gamma ELISPOT assay [1]: potent IFN-gamma production
- CTL activities of CTL clones against the peptide-pulsed target [4]: potent and specific CTL activities
- Establishment of CTL line, specific CTL activity against the peptide-pulsed target determined by ELISA [2]: CTL lines were established
- Specific CTL activity against COS7 transfected with both CDH3 and HLA-A24 ([5]; listed as CDH3-A24-10-807): highest specific CTL activity; also recorded: high specific CTL activity

Substance: FILPvLGAVL (FILPVLGAVL; not fully specified; printed as FILPvLGAVL) [SEQ ID NO: 344]
- IFN-gamma production by IFN-gamma ELISPOT assay [1]: potent IFN-gamma production
- CTL activities of CTL clones against the peptide-pulsed target [4]: potent and specific CTL activities
- Establishment of CTL line, specific CTL activity against the peptide-pulsed target determined by ELISA [2]: CTL lines were established
- Specific CTL activity against COS7 transfected with both CDH3 and HLA-A24 ([5]; listed as CDH3-A24-10-655): highest specific CTL activity; also recorded: high specific CTL activity

Substance: SEQ ID NO: 133: HLA-A*2402 binding 10-mer peptide derived from INHBB (LYLKLLPYVL)
- IFN-gamma production by IFN-gamma ELISPOT assay [1]: potent IFN-gamma production
- Specific CTL activity against 293T transfected with both INHBB and HLA-A24 ([6]; listed as INHBB-A24-10-180): highest specific CTL activity; also recorded: high specific CTL activity
- Establishment of CTL line, specific CTL activity against the peptide-pulsed target determined by ELISA [2]: CTL lines were established

Substance: SEQ ID NO: 135: HLA-A*2402 binding 10-mer peptide derived from INHBB (RQQFFIDFRL)
- IFN-gamma production by IFN-gamma ELISPOT assay [1]: potent IFN-gamma production
- Specific CTL activity against 293T transfected with both INHBB and HLA-A24 ([6]; listed as INHBB-A24-10-305): highest specific CTL activity; also recorded: high specific CTL activity
- CTL activities of CTL clones against the peptide-pulsed target [4]: potent and specific CTL activities
- Establishment of CTL line, specific CTL activity against the peptide-pulsed target determined by ELISA [2]: CTL lines were established

Substance: SEQ ID NO: 137: HLA-A*2402 binding 10-mer peptide derived from INHBB (RALGAACLLL)
- IFN-gamma production by IFN-gamma ELISPOT assay [1]: potent IFN-gamma production
- Specific CTL activity against 293T transfected with both INHBB and HLA-A24 ([6]; listed as INHBB-A24-10-7): highest specific CTL activity
- Establishment of CTL line, specific CTL activity against the peptide-pulsed target determined by ELISA [2]: CTL lines were established

Substance: SEQ ID NO: 233: HLA-A*0201 binding 9-mer peptide derived from TTK (SLGCILYYM)
- IFN-gamma production by IFN-gamma ELISPOT assay (peptide-pulsed T2 cells [7]): potent IFN-gamma production
- Establishment of CTL line, specific CTL activity against the peptide-pulsed target determined by ELISA (peptide-pulsed T2 cells [8]): CTL line and clones were established
- Specific CTL activity against COS7 transfected with both TTK and HLA-A02 ([9]; listed as TTK-A02-9-719): high specific CTL activity
- Specific CTL activity against COS7 transfected with both TTK and HLA-A02 ([9]; listed as TTK-A2-9-719): highest specific CTL activity
- CTL activities of CTL clones against the peptide-pulsed target (peptide-pulsed T2 cells [10]): potent and specific CTL activities

Substance: SEQ ID NO: 254: HLA-A*0201 binding 10-mer peptide derived from TTK (YMSCFRTPVV)
- IFN-gamma production by IFN-gamma ELISPOT assay (peptide-pulsed T2 cells [7]): potent IFN-gamma production
- Establishment of CTL line, specific CTL activity against the peptide-pulsed target determined by ELISA (peptide-pulsed T2 cells [8]): CTL line and three clones were established
- Specific CTL activity against COS7 transfected with both TTK and HLA-A02 ([9]; listed as TTK-A02-10-462): specific CTL activity
- Specific CTL activity against COS7 transfected with both TTK and HLA-A02 ([9]; listed as TTK-A2-10-462): highest specific CTL activity
- CTL activities of CTL clones against the peptide-pulsed target (peptide-pulsed T2 cells [10]): potent and specific CTL activities
